Like-named read-outs stand apart in the source and are kept apart here. No end group written: not given here.
Experiments:
[1] = test system: Adherence of S. pneumoniae to immobilized fibronectin; format: cell-based; details: for inhibition of pneumococcal adherence to fibronectin: added to coated wells 15 min prior to bacteria
Protocol: (§1) Fibronectin, its recombinant fragments, or rsVCAM were noncovalently immobilized through passive adsorption to 60 well Terasaki trays (wettable polystyrene [plasma treated], Robbins Scientific, Sunnyvale, Calif.). Briefly, substrates were reconstituted ([…]) in phosphate buffered saline (DPBS) and allowed to coat the Teresaki trays for 90 min at 37° C. […] Prior to use, the plates were washed five times with DPBS and excess liquid was removed from the wells.
(§2) Bacteria were labeled with fluorescein isothyocyanate as described [Geelen et al., Infect. Immun., 61:1538-1543 (1993)] and were resuspended in DPBS supplemented with 0.05% glucose and Ca^++ and Mg^++. Bacterial suspensions were brought to an A620 of 0.04, previously established to equal 1×10^7 cfu/ml of S. pneumoniae. 10 μl of bacteria were added to each well and incubated statically for 1 hour at 37° C. Unbound bacteria were eliminated by washing five times with DPBS. Bound bacteria were fixed to the surface by incubation with 2.5% glutaraldehyde solution for 3 minutes. Bacteria were counted visually with an inverted microscope (Nikon) equipped for fluorescence with an IF DM 510 filter. Binding was expressed as the number of attached bacteria per 0.25 mm^2 surface area. Values were corrected for non-specific binding by subtracting adherence to uncoated wells and are presented as the mean±standard deviation of at least 3 experiments with 3 to 6 wells/plate/experiment. For some experiments, binding was performed in the presence of rabbit polyclonal anti-pneumococcus R6 antibody or one of the following monoclonal antibodies: anti-choline (TEPC-15), anti-PspA Xi126 and XiR278 [McDaniel et al., Microb. Pathog., 13:261-9 (1992)]; anti-pneumococcal surface adhesin A PsaA [Sampson et al., Infect. Immun., 62:319-324 (1994)]; anti-VLA-4 (R & D Systems); and anti-VCAM-1 (R & D Systems). Alternatively, potential inhibition of pneumococcal binding was assessed in the presence of purified recombinant PspA or PsaA.

[2] = Antigenicity: CBPs injected into rabbits, sera tested by Western blot; design: species or system rabbit
Protocol: Vaccine candidates must be antigenic. The CBPs from choline agarose chromatography were injected into rabbits and sera tested for cross reactivity. Several proteins produced a strong signal. Prominent were CBPs 112, 90, 84 and 70, and 50 (FIGS. 1 and 2).
White rabbits were immunized by intradermal injection in the back with 500 μg purified CBPs in 1 ml of a 1:1 emulsion of buffer and Complete Freund's Adjuvant. The rabbits were boosted with a subcutaneous dorsal injection of 250 μg of purified CBPs in 1 ml of 1:1 buffer to Incomplete Freund's Adjuvant at weeks 3, 6, 9, 12, and 15. Rabbits were pre-bled, and test bled approximately 10 days prior to each boost. Serum obtained at week 16 were used in all experiments.
(§3) The CBPs were examined by SDS-PAGE and Western blot using the following antibodies: (1) polyclonal anti-pneumococcal serum (rabbit or “ROB”); (2) anti-PspA monoclonal antibody; (3) anti-FITC monoclonal antibody; (4) convalescent human anti-pneumococcal sera and (5) polyclonal anti-CBP antibody. 9 CBPs were identified on SDS-PAGE/Western blot.

[3] = test system: S. pneumoniae; test: Direct adherence of S. pneumoniae to wells coated with VCAM-1, fibronectin fragments, peptides or enolase; format: cell-based
Protocol: as §1, §2

[4] = Western blot of CBPs with pooled human convalescent sera
Protocol: as §3
The CBPs were analyzed by 7.5% sodium dodecyl sulfate polyacrylamide gel electrophoresis (SDS-PAGE) and by Western blotting after electrophoretic transfer to an Immobilon-P transfer membrane (Millipore Corporation, Bedford, Mass.). For some experiments, pneumococci were labelled with fluorescein isothiocyanate (FITC) as described in the adherence assay. Western blot analysis was carried out with anti-FITC (Moleular Probes), anti-CBP or covalescent antisera each at a dilution of 1:1000. Bound antibody was detected with peroxidase conjugated goat anti-rabbit serum detected with the Chemiluminesce Kit from Amersham (Cambridge, Mass.). The convalescent sera was a mixture of sera pooled from five patients collected one month after recovery from bacteremia and pneumonia. The capsular serotypes of these infecting pneumococci were 3, 7, 14, 22, and 23.

NCCCCCC(=O)O [6-amino hexanoic acid]
inhibition of pneumococcal adherence to fibronectin (in words) [1]: not able to inhibit adherence

NCCCC[C@H](N)C(=O)O [L-lysine]
inhibition of pneumococcal adherence to fibronectin ([1]; 0.1 M): 67%
inhibition of pneumococcal adherence to fibronectin ([1]; 0.5M): 95%
inhibition of pneumococcal adherence to fibronectin ([1]; 1 M): 99%

C[N+](C)(C)CCO [choline]
decrease in binding of pneumococci to fibronectin ([1]; preincubation of bacteria in 10% choline solution): greater than 50%

CBP84: pneumococcal choline binding protein, SEQ ID NO:3, 85% identical to Elongation Factor G (XREFSLEKTRNIGIMAHVDAGKT; X: residue not identified in the source)
signal with sera of rabbits injected with CBPs [2]: strong signal

WQPPRARI [FN5]
direct adherence of S. pneumoniae to coated substrate (in words) [3]: able to support adherence

B1: CBP112: 112 kDa surface exposed pneumococcal choline binding protein, N-terminal SEQ ID NO:1 (protein)
chain: MMREIQLDRRKHTQNVALNIKLSAIKTKYLRELNVLEEKSKDELPSEIKAKLDAAFEKFKKDTLKPGEKVAEAKKKVEEAKKKAEDQKEEDRRNYPTNTYKTLELEIAEFDVKVKEAELELVKEEAKESRNEGTIKQAKEKVESKKAEATRLENIKTDRKKAEEEAKRKADAKLKEANVATSDQGKPKGRAKRGVPGELATPDKKENDAKSSDSSVGEETLPSSSLKSGKKVAEAEKKVEEAEKKAKDQKEEDRRNYPTNTYKTLDLEIAESDVKVKEAELELVKEEAKEPRDEEKIKQAKAKVESKKAEATRLENIKTDRKKAEEEAKRKAAEEDKVKEKPAEQPQPAPATQPEKPAPKPEKPAEQPKAEKTDDQQAEEDYARRSEEEYNRLTQQQPPKTEKPAQPSTPKTGWKQENGMWYFYNTDGSMATGWLQNNGSWYYLNANGAMATGWLQNNGSWYYLNANGSMATGWLQNNGSWYYLNANGAMATGWLQYNGSWYYLNSNGAMATGWLQYNGSWYYLNANGDMATGWLQNNGSWYYLNANGDMATGWLQYNGSWYYLNANGDMATGWVKDGDTWYYLEASGAMKASQWFKVSDKWYYVNGSGALAVNTTVDGYGVNANGEWVNZ
signal with pooled human antisera from individuals recovering from pneumococcal disease [4]: strong signal
signal with sera of rabbits injected with CBPs [2]: strong signal

B2: 2-phospho-D-glycerate hydrolyase (protein, UniProt P00924 2-437, looked up)
Enolase 1: AVSKVYARSVYDSRGNPTVEVELTTEKGVFRSIVPSGASTGVHEALEMRDGDKSKWMGKGVLHAVKNVNDVIAPAFVKANIDVKDQKAVDDFLISLDGTANKSKLGANAILGVSLAASRAAAAEKNVPLYKHLADLSKSKTSPYVLPVPFLNVLNGGSHAGGALALQEFMIAPTGAKTFAEALRIGSEVYHNLKSLTKKRYGASAGNVGDEGGVAPNIQTAEEALDLIVDAIKAAGHDGKIKIGLDCASSEFFKDGKYDLDFKNPNSDKSKWLTGPQLADLYHSLMKRYPIVSIEDPFAEDDWEAWSHFFKTAGIQIVADDLTVTNPKRIATAIEKKAADALLLKVNQIGTLSESIKAAQDSFAAGWGVMVSHRSGETEDTFIADLVVGLRTGQIKTGAPARSERLAKLNQLLRIEEELGDNAVFAGENFHHGDKL
notes: glycolytic enzyme enolase (Sigma), yeast
maximum inhibition of pneumococcal adherence to fibronectin ([1]; 1000 U/ml, added to fibronectin coated wells prior to bacteria): 98%
direct adherence of S. pneumoniae to coated substrate (in words) [3]: No direct adherence

B3: rsVCAM: recombinant soluble vascular cell adhesion molecule-1 (protein)
chain: FKIETTPESRYLAQIGDSVSLTCSTTGCESPFFSWRTQIDSPLNGKVTNEGTTSTLTMNPVSFGNEHSYLCTATCESRKLEKGIQVEIYSFPKDPEIHLSGPLEAGKPITVKCSVADVYPFDRLEIDLLKGDHLMKSQEFLEDADRKSLETKSLEVTFTPVIEDIGKVLVCRAKLHIDEMDSVPTVRQAVKELQVYISPKNTVISVNPSTKLQEGGSVTMTCSSEGLPAPEIFWSKKLDNGNLQHLSGNATLTLIAMRMEDSGIYVCEGVNLIGKNRKEVELIVQEKPFTVEISPGPRIAAQIGDSVMLTCSVMGCESPSFSWRTQIDSPLSGKVRSEGTNSTLTLSPVSFENEHSYLCTVTCGHKKLEKGIQVELYSFPRDPEIEMSGGLVNGSSVTVSCKVPSVYPLDRLEIELLKGETILENIEFLEDTDMKSLENKSLEMTFIPTIEDTGKALVCQAKLHIDDMEFEPKQRQSTQTLYVNVAPRDTTVLVSPSSILEEGSSVNMTCLSQGFPAPKILWSRQLPNGELQPLSENATLTLISTKMEDSGVYLCEGINQAGRSRKEVELIIQVTPKDIKLTAFPSESVKEGDTVIISCTCGNVPETWIILKKKAETGDTVLKSIDGAYTIRKAQLKDAGVYECESKNKVGSQLRSLTLDVQGRENNKDYFSPE
inhibition of adherence of S. pneumoniae to fibronectin ([1]; preincubation of the bacteria with the substance): 96%
density of S. pneumoniae adhering directly to coated wells [3]: 75±18 bacteria/0.25 mm ^2
direct adherence as share of adherence to whole fibronectin [3]: 6%

Source: patent publication US6784164B2, “Choline binding proteins for anti-pneumococcal vaccines” (priority 1996, dated 2004)
